# Test results published in US5212286A, “Atrial Natriuretic/vasodilator peptide compounds” (Scios Nova Inc., priority 1986, dated 1993).
# pIC50, pKi: −log10 of the molar value. Positions of bridges follow the written chain, without caps; N, C: chain ends. Residues, ends and D or L forms follow the SMILES beside them.
# What was measured:
# [1] = test system: precontracted rabbit or rat aortic preparations; test: Vasorelaxant potency on precontracted aortic rings; conditions: for pIC50: thoracic aortic segments precontracted with histamine or norepinephrine, read-out: IC50 (concentration producing half-maximal relaxation of the precontracted tissue); for vasorelaxant potency in words: precontracted vascular preparations
# Method: Synthetic ANVP compounds were compared to partially purified (gel filtration step) and purified (HPLC) native ANVP compounds (See FIGS. 3A-D) for their ability to relax histamine-contracted aortic rings. Rings were suspended in 10 ml aerated Kreb's buffer under 1.5 gm passive tension. Rings were precontracted with 5 X 10^-6 M histamine, washed and allowed to return to baseline tension, as described ([…]., supra). Increasing amounts of purified or synthetic ANVP compounds were then added in cumulative fashion. […] The relaxation effects of various ANVP compounds on precontracted rabbit or rat aortic preparations are shown in Table III. | Thoracic aortic segments were precontracted with histamine or | norepinephrine as previously described. Various doses of ANVP compounds | were then added and relaxation of the precontracted state was monitored. | Data are expressed as the concentration of each peptide required to | produce a halfmaximal relaxation of the precontracted tissue (IC50).
# intact rats = test: Natriuretic and diuretic effects in intact rats (bolus injection); type: in vivo, rat
# Method: Synthetic ANVP compounds […] hANVP(127-151) were also found to be natriuretic in the intact rat. These compounds were administered as a bolus injection to Inactin anesthetized rats (100 mg/kg, average weight 399 g) which were maintained on a constant infusion of normal saline at 2.2 ml/hr. […] Data are expressed as mean±SE.
# isolated rat kidney = test: Renal function in the isolated perfused rat kidney; conditions: dose 1 μg; experimental period E; mean of 3-8 experiments
# [2] = test system: ANVP receptor sites on cultured bovine vascular smooth muscle cells; test: Displacement of specific [125I]rANVP(126-150) binding on cultured smooth muscle cells; conditions: for pKi: concentration of half-maximal displacement
# Description: Specific and saturable binding is a necessary component of a hormone/receptor interaction.
# Various concentrations of the peptides described were examined for […]
Structure (SMILES),pIC50 [1],pKi ([2]; Series B smooth muscle cells),vasorelaxant potency in words [1],also measured
"CC[C@H](C)[C@@H]1NC(=O)[C@H](CCCNC(=N)N)NC(=O)[C@H](CC(=O)O)NC(=O)[C@H]([C@@H](C)CC)NC(=O)[C@H](CCCNC(=N)N)NC(=O)[C@@H]2CCCN2C(=O)CNC(=O)[C@H](Cc2ccccc2)NC(=O)[C@@H](NC(=O)[C@H](CO)NC(=O)[C@H](CO)NC(=O)[C@@H](N)CCCNC(=N)N)CSSC[C@@H](C(=O)N[C@@H](CC(N)=O)C(=O)N[C@@H](CO)C(=O)N[C@@H](Cc2ccccc2)C(=O)N[C@@H](CCCNC(=N)N)C(=O)N[C@@H](Cc2ccc(O)cc2)C(=O)O)NC(=O)CNC(=O)[C@H](CC(C)C)NC(=O)CNC(=O)[C@H](CO)NC(=O)[C@H](CCC(N)=O)NC(=O)[C@H](C)NC(=O)CNC1=O [[Pro^132]rANVP(126-150), H-Arg-Ser-Ser-Cys-Phe-Gly-Pro-Arg-Ile-Asp-Arg-Ile-Gly-Ala-GLn-Ser-Gly-Leu-Gly-Cys-Asn-Ser-Phe-Arg-Tyr-OH]",8.49,–,–,Peak Na+ Excr. (intact rats; dose 3670 pmol/kg): 56 ± 20 µmol/min; Peak Urine Vol. (intact rats; dose 3670 pmol/kg): 10.5 ± 2 µL/min
"CC[C@H](C)[C@@H]1NC(=O)[C@H](CCCNC(=N)N)NC(=O)CNC(=O)CNC(=O)[C@H](Cc2ccccc2)NC(=O)[C@@H](NC(=O)[C@H](CO)NC(=O)[C@H](CO)NC(=O)[C@@H](N)CCCNC(=N)N)CSSC[C@@H](C(=O)N[C@@H](CC(N)=O)C(=O)N[C@@H](CO)C(=O)N[C@@H](Cc2ccccc2)C(=O)N[C@@H](CCCNC(=N)N)C(=O)N[C@@H](Cc2ccc(O)cc2)C(=O)O)NC(=O)CNC(=O)[C@H](CC(C)C)NC(=O)CNC(=O)[C@H](CO)NC(=O)[C@H](CCC(N)=O)NC(=O)[C@H](C)NC(=O)[C@@H](C)NC(=O)[C@H]([C@@H](C)CC)NC(=O)[C@H](CCCNC(=N)N)NC(=O)[C@H](CC(=O)O)NC1=O [[D-Ala^138]rANVP(126-150), H-Arg-Ser-Ser-Cys-Phe-Gly-Gly-Arg-Ile-Asp-Arg-Ile-[D-Ala]-Ala-Gln-Ser-Gly-Leu-Gly-Cys-Asn-Ser-Phe-Arg-Tyr-OH]",8.51,–,–,.V (urine flow rate) (isolated rat kidney): 57.5 µL/min; GFR (isolated rat kidney): 0.54 mL/min; UNa.V (urinary sodium excretion rate) (isolated rat kidney): 2.53 μEq/min; pKi ([2]; Series A smooth muscle cells): 7.70
"CC[C@H](C)[C@@H]1NC(=O)[C@H](CCCNC(=N)N)NC(=O)CNC(=O)CNC(=O)[C@H](Cc2ccccc2)NC(=O)[C@@H](NC(=O)[C@H](CO)NC(=O)[C@H](CO)NC(=O)[C@@H](N)CCCNC(=N)N)CSSC[C@@H](C(=O)N[C@@H](CC(N)=O)C(=O)N[C@@H](CO)C(=O)N[C@@H](Cc2ccccc2)C(=O)N[C@@H](CCCNC(=N)N)C(=O)N[C@@H](Cc2ccc(O)cc2)C(=O)O)NC(=O)CNC(=O)[C@H](CC(C)C)NC(=O)CNC(=O)[C@H](CO)NC(=O)[C@H](CCC(N)=O)NC(=O)[C@H](C)NC(=O)CNC(=O)[C@@H](C(C)C)NC(=O)[C@H](CCCNC(=N)N)NC(=O)[C@H](CC(=O)O)NC1=O [[D-Val^137]rANVP(126-150), H-Arg-Ser-Ser-Cys-Phe-Gly-Gly-Arg-Ile-Asp-Arg-[D-Val]-Gly-Ala-Gln-Ser-Gly-Leu-Gly-Cys-Asn-Ser-Phe-Arg-Tyr-OH]",7.40,–,–,"diuresis and natriuresis in intact rats, in words (intact rats; Table VII doses): exceptions; Peak Na+ Excr. (intact rats; dose 3670 pmol/kg): 0.54 ± 0.3 µmol/min; Peak Urine Vol. (intact rats; dose 3670 pmol/kg): 9.5 ± 5 µL/min"
"CC[C@H](C)[C@@H]1NC(=O)[C@H](CCCNC(=N)N)NC(=O)[C@H](CC(=O)O)NC(=O)[C@@H](CCSC)NC(=O)[C@H](CCCNC(=N)N)NC(=O)CNC(=O)CNC(=O)[C@H](Cc2ccccc2)NC(=O)[C@@H](NC(=O)[C@H](CO)NC(=O)[C@H](CO)NC(=O)[C@@H](N)CCCNC(=N)N)CSSC[C@@H](C(=O)N[C@@H](CC(N)=O)C(=O)N[C@@H](CO)C(=O)N[C@@H](Cc2ccccc2)C(=O)N[C@@H](CCCNC(=N)N)C(=O)N[C@@H](Cc2ccc(O)cc2)C(=O)O)NC(=O)CNC(=O)[C@H](CC(C)C)NC(=O)CNC(=O)[C@H](CO)NC(=O)[C@H](CCC(N)=O)NC(=O)[C@H](C)NC(=O)CNC1=O [[D-Met^135]hANVP(127-151), H-Arg-Ser-Ser-Cys-Phe-Gly-Arg-[D-Met]-Asp-Arg-Ile-Gly-Ala-Gln-Ser-Gly-Leu-Gly-Cys-Asn-Ser-Phe-Arg-Tyr-OH]",8.12,8.37,–,–
CC[C@H](C)[C@@H]1NC(=O)[C@H](CCCNC(=N)N)NC(=O)[C@H](CC(=O)O)NC(=O)[C@H]([C@@H](C)CC)NC(=O)[C@H](CCCNC(=N)N)NC(=O)CNC(=O)CNC(=O)[C@H](Cc2ccccc2)NC(=O)[C@@H](NC(=O)[C@H](CO)NC(=O)[C@H](CO)NC(=O)[C@@H](N)CCCNC(=N)N)CSSC[C@@H](C(=O)N[C@@H](CC(N)=O)C(=O)N[C@@H](CO)C(=O)N[C@@H](Cc2ccccc2)C(=O)O)NC(=O)CNC(=O)[C@H](CC(C)C)NC(=O)CNC(=O)[C@H](CO)NC(=O)[C@H](CCC(N)=O)NC(=O)[C@H](C)NC(=O)CNC1=O [rANVP(126-148)] (H-RSSCFGGRIDRIGAQSGLGCNSF-OH; disulfide 4-20),8.12,8.88,substantially less potent than rANVP(126-150),"binding activity in smooth muscle cells relative to rANVP(126-150), in words [2]: comparable binding activity to rANVP(126-150); Peak Na+ Excr. (intact rats; dose 455 pmol/kg): 56.3 ± 8 µmol/min; Peak Urine Vol. (intact rats; dose 455 pmol/kg): 6.8 ± 0.5 µL/min"
CC[C@H](C)[C@@H]1NC(=O)[C@H](CCCNC(=N)N)NC(=O)[C@H](CC(=O)O)NC(=O)[C@H]([C@@H](C)CC)NC(=O)[C@H](CCCNC(=N)N)NC(=O)CNC(=O)CNC(=O)[C@H](Cc2ccccc2)NC(=O)[C@@H](NC(=O)[C@H](CO)NC(=O)[C@H](CO)NC(=O)[C@@H](N)CCCNC(=N)N)CSSC[C@@H](C(=O)N[C@@H](CC(N)=O)C(=O)N[C@@H](CO)C(N)=O)NC(=O)CNC(=O)[C@H](CC(C)C)NC(=O)CNC(=O)[C@H](CO)NC(=O)[C@H](CCC(N)=O)NC(=O)[C@H](C)NC(=O)CNC1=O [rANVP(126-147)-NH2] (H-RSSCFGGRIDRIGAQSGLGCNS-NH2; disulfide 4-20),7.89,8.74,–,–
CC[C@H](C)[C@@H]1NC(=O)[C@H](CCCNC(=N)N)NC(=O)[C@H](CC(=O)O)NC(=O)[C@H](CCSC)NC(=O)[C@H](CCCNC(=N)N)NC(=O)CNC(=O)CNC(=O)[C@H](Cc2ccccc2)NC(=O)[C@@H](NC(=O)[C@H](CO)NC(=O)[C@H](CO)NC(=O)[C@@H](N)CCCNC(=N)N)CSSC[C@@H](C(=O)O)NC(=O)CNC(=O)[C@H](CC(C)C)NC(=O)CNC(=O)[C@H](CO)NC(=O)[C@H](CCC(N)=O)NC(=O)[C@H](C)NC(=O)CNC1=O [hANVP(127-146)] (H-RSSCFGGRMDRIGAQSGLGC-OH; disulfide 4-20),7.00,8.74,substantially diminished potency,–
CC[C@H](C)[C@@H]1NC(=O)[C@H](CCCNC(=N)N)NC(=O)[C@H](CC(N)=O)NC(=O)[C@H]([C@@H](C)CC)NC(=O)[C@H](CCCNC(=N)N)NC(=O)CNC(=O)CNC(=O)[C@H](Cc2ccccc2)NC(=O)[C@@H](NC(=O)[C@H](CO)NC(=O)[C@H](CO)NC(=O)[C@@H](N)CCCNC(=N)N)CSSC[C@@H](C(=O)N[C@@H](CC(N)=O)C(=O)N[C@@H](CO)C(=O)N[C@@H](Cc2ccccc2)C(=O)N[C@@H](CCCNC(=N)N)C(=O)N[C@@H](Cc2ccc(O)cc2)C(=O)O)NC(=O)CNC(=O)[C@H](CC(C)C)NC(=O)CNC(=O)[C@H](CO)NC(=O)[C@H](CCC(N)=O)NC(=O)[C@H](C)NC(=O)CNC1=O [[Asn^135]rANVP(126-150)] (H-RSSCFGGRINRIGAQSGLGCNSFRY-OH; disulfide 4-20),–,7.47,–,–
"CC[C@H](C)[C@@H]1NC(=O)[C@H](CCCNC(=N)N)NC(=O)[C@H](CC(=O)O)NC(=O)[C@H]([C@@H](C)CC)NC(=O)[C@H](CCCNC(=N)N)NC(=O)CNC(=O)CNC(=O)[C@H](Cc2ccccc2)NC(=O)[C@@H](NC(=O)[C@H](CO)NC(=O)[C@H](CO)NC(=O)[C@@H](N)CCCNC(=N)N)CSSC[C@@H](C(=O)N[C@@H](CC(N)=O)C(=O)N[C@@H](CO)C(=O)N[C@@H](Cc2ccccc2)C(=O)N[C@@H](CCCNC(=N)N)C(=O)N[C@@H](Cc2ccc(O)cc2)C(N)=O)NC(=O)CNC(=O)[C@H](CC(C)C)NC(=O)CNC(=O)[C@H](CO)NC(=O)[C@H](CCC(N)=O)NC(=O)[C@H](C)NC(=O)CNC1=O [rANVP(126-150)-NH2, H-Arg-Ser-Ser-Cys-Phe-Gly-Gly-Arg-Ile-Asp-Arg-Ile-Gly-Ala-Gln-Ser-Glyn-Leu- Gly-Cys-Asn-Ser-Phe-Arg-Tyr-NH2]",9.10,–,most potent,Peak Na+ Excr. (intact rats; dose 367 pmol/kg): 57 µmol/min; Peak Urine Vol. (intact rats; dose 367 pmol/kg): 11.2 ± 1.6 µL/min
CC[C@H](C)[C@@H]1NC(=O)[C@H](CCCNC(=N)N)NC(=O)[C@H](CC(=O)O)NC(=O)[C@H](CCSC)NC(=O)[C@H](CCCNC(=N)N)NC(=O)CNC(=O)CNC(=O)[C@H](Cc2ccccc2)NC(=O)[C@@H](NC(=O)[C@H](CO)NC(=O)[C@H](CO)NC(=O)[C@@H](N)CCCNC(=N)N)CSSC[C@@H](C(=O)N[C@@H](CC(N)=O)C(=O)N[C@@H](CO)C(=O)N[C@@H](Cc2ccccc2)C(=O)O)NC(=O)CNC(=O)[C@H](CC(C)C)NC(=O)CNC(=O)[C@H](CO)NC(=O)[C@H](CCC(N)=O)NC(=O)[C@H](C)NC(=O)CNC1=O [hANVP(127-149)] (H-RSSCFGGRMDRIGAQSGLGCNSF-OH; disulfide 4-20),–,8.61,–,–
